Holding throughout (experiment): radiometric enzymatic assay
Holding throughout (format): biochemical

Test [1] addresses T1, CK1γ1 (Homo sapiens, UniProt Q9HCP0). The settings on record: read-out: Enzymatic IC50 CK1γ1.
The target in test [2] is T2, CK1γ2 (Homo sapiens, UniProt P78368). The settings on record: read-out: Enzymatic IC50 CK1γ2.
The target in test [3] is T1, CK1γ1. The settings on record: read-out: NB IC50 CK1γ3.
Test [4] concerns the target T2, CK1γ2. Conditions: read-out: Enzymatic IC50 CK1γ2. This is another data set of the same source.
Test [5] addresses T2, CK1γ2. The settings on record: read-out: Enzymatic IC50 CK1γ2. The source holds these as a separate data set.
Test [6] concerns the target T1, CK1γ1. Conditions: read-out: Enzymatic IC50 CK1γ1. The source holds these as a separate data set.
Test [7] concerns the target T1, CK1γ1. The settings on record: read-out: Enzymatic IC50 CK1γ1. This is another data set of the same source.
In test [8] the target is T2, CK1γ2. The settings on record: read-out: Enzymatic IC50 CK1γ2. The source holds these as a separate data set.

From article PMC12458359 (bioRxiv, 2025) come the findings set out here.

For orientation: IC50 means the midpoint of a concentration-inhibition curve.

SMILES strings stand for the structures. Read-outs that look alike come from different tables or passages of the source.

T1 sequence (Q9HCP0 whole entry): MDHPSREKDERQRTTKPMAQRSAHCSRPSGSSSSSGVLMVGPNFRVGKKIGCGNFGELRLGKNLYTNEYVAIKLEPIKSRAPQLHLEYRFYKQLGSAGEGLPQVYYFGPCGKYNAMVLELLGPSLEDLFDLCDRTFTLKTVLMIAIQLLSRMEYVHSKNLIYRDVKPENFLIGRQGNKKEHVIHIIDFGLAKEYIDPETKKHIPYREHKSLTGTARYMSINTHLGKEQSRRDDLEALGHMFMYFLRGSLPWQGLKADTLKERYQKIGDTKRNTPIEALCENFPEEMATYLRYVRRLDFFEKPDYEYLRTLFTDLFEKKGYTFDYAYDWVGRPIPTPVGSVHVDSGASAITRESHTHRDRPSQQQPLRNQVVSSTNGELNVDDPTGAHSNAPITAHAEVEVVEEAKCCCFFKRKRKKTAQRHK
T2 sequence (P78368 whole entry): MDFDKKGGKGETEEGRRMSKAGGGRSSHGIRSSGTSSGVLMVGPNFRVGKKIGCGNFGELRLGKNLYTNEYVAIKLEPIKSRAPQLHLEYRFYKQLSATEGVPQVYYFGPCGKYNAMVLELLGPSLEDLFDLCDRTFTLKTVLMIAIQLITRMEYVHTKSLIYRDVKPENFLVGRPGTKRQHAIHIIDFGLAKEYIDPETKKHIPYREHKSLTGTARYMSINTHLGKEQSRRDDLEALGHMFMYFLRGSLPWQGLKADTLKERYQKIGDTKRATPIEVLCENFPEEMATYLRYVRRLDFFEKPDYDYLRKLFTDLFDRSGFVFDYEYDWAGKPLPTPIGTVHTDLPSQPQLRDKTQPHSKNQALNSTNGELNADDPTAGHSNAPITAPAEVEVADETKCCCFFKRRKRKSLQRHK

For `N#Cc1ccc2nc(Nc3ccc(N4CCOCC4)c(Cl)c3)[nH]c2c1` [compound 14, 2-((3-chloro-4-morpholinophenyl)amino)-1H-benzo[d]imidazole-6-carbonitrile], the IC50 at CK1γ1 [1] worked out at 28 nM; at CK1γ2 [2] it was 7 nM.
As for `N#Cc1ccc2[nH]c(Nc3ccc(N4CCCCC4)c(Cl)c3)nc2c1` [compound 20, 2-((3-chloro-4-(piperidin-1-yl)phenyl)amino)-1H-benzo[d]imidazole-5-carbonitrile], the IC50 on CK1γ1 [3] came out at 30 nM; on CK1γ2 [4] it was 9 nM.
As for `N#Cc1ccc2nc(Nc3ccc(N4CCOCC4)c(Br)c3)[nH]c2c1` [compound 15, 2-((3-bromo-4-morpholinophenyl)amino)-1H-benzo[d]imidazole-6-carbonitrile], the concentration for half-maximal inhibition (IC50) amounted to 10 nM on CK1γ2 [5] and 40 nM on CK1γ1 [6].
On to `CN1CCN(c2ccc(Nc3nc4ccc(C#N)cc4[nH]3)cc2Cl)CC1` [compound 21, 2-((3-chloro-4-(4-methylpiperazin-1-yl)phenyl)amino)-1H-benzo[d]imidazole-6-carbonitrile], for which the IC50 at CK1γ1 [7] is 36 nM; on CK1γ2 [8] it was 14 nM.
